# Tests used:
# full length CalDAG-GEF 1 = molecular target: T1, full length CalDAG-GEF 1 (Homo sapiens, UniProt Q7LDG7); assay: in vitro activation of Rap1 (mantGDP-loaded) by full length CalDAG-GEF versus mutant lacking the regulatory domain; type: biochemical; settings: 100 µM calcium added; compared with mutant lacking the regulatory domain
# T1 construct: To that end full length CalDAG-GEF 1 and a CalDAG-Gef mutants lacking the regulatory domain was compared
# T1 sequence (Q7LDG7 1-609): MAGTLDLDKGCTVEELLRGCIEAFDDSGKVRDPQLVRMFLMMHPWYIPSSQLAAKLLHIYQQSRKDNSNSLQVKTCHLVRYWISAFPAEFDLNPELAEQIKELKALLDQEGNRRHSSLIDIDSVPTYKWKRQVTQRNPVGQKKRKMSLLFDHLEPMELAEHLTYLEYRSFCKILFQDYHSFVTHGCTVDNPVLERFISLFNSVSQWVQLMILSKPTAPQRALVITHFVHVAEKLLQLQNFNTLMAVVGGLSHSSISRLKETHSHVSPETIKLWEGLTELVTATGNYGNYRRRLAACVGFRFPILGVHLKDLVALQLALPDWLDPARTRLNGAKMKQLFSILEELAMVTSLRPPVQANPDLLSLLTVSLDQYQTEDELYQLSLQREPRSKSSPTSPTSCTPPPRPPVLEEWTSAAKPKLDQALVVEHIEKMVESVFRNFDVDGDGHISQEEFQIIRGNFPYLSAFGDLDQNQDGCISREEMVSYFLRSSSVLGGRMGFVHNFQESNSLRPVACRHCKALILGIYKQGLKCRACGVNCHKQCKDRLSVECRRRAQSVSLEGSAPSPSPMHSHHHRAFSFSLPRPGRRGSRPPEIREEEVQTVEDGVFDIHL
# Procedure: We therefore investigated whether CalDAG-GEF was regulated by an auto-inhibitory domain. To that end full length CalDAG-GEF 1 and a CalDAG-Gef mutants lacking the regulatory domain was compared for in vitro activation of Rap1.
# Figure 9. CalDAG-GEF contains an autoinhibitory domain regulated by calcium. Equal amounts of CalDAG-GEF and mutant CalDAG-GEF lacking the DAG and Ca binding domains were incubayed with mantGDP-loaded Rap1 and incubated in the presence or absence of 100 µM calcium.
# LFA-1 = assay: flow cytometry of mAB 24 epitope expression on Jurkat cells; type: cell-based; settings: Jurkat cells coincubated with mAB 24 and 400 µM MnCl2; relative to unstimulated
# Procedure: The anti-aL integrin antibody mAB 24 recognizes a conformation-dependent ligand-induced epitope on LFA-1, and induction of the mAB 24 epitope correlates with increased LFA-1 affinity for ICAM (Dransfield and Hogg, 1989). […] This conformational change can also be induced by LFA-1 exposure to Mn^2+, independently of "inside-out" signalling. […] Incubation of cells with mAB 24 at 4°C abolished CD31 and Mn^2+ -induced mAB 24 expression to background levels (data not shown), consistent with the temperature-sensitivity of the mAB 24 epitope (Dransfield and Hogg, 1989). […]
# Flow cytometric analysis of transfected cells was performed by cotransfecting Jurkat JHMI cells with […] pCMV-EGFP C1 plasmid (Promega) and the indicated cDNA constructs. […] Fluorescence intensity of EGFP-transfected cells was determined using a FACsCaliber flow cytometer and CellQuest software (both from Becton Dickinson).
# Figure 4. […] Cells were sequentially stained with anti-b2 integrin antibody L15 and rabbit anti-mouse Ig-RPE-Cy5 conjugate, and GFP-expressing cells analysed by flow cytometry. […] Alternatively, unstimulated cells were coincubated with mAB 24 and 400 µM MnCl2 (Mn). mAB 24 expression was assessed by flow cytometry, and expression levels normalized to 1 for unstimulated GFP-alone cells in each experiment. […]
# Ras = assay: GTP-bound GTPase pull-down with GST-Raf-RBD and immunoblotting in Jurkat cells; type: cell-based; settings: Jurkat JHMI 2.2 cells, time-course; TPA 100 ng/ml, 5 minutes
# Text: (§1) To address which Ras family members, if any, might participate in CD31 signaling, we precipitated endogenous GTPases from lysates of CD31-stimulated Jurkat with GST fusion proteins of Ras family-binding domains (RBDs) of Raf and RalGDS, which bind with high selectivity and specificty to activated Ras and Rap GTPases, respectively (de Rooij and Bos, 1997; Franke et al., 1997). Immunoblotting of precipitated GTPases provides a qualitative representation of GTPase activation status following cell stimulation, corresponding to quantitative changes detected using classical GDP/GTP-binding ratio techniques. […] GTP-bound R-Ras was detected in Raf-RBD pull-downs only following longer exposures of films, reflecting the relatively low levels of R-Ras protein expression in Jurkat. […]
# Figure 1. […] Bound GTPases were resolved on SDS-PAGE, transferred to PVDF membrane, and detected by immunoblotting with antibodies against the indicated proteins, followed by enhanced chemiuminescence (ECL). […] JHMI cells were activated for 2 minutes with medium (-), anti-CD3 antibody T3b (1:200) or the indicated anti-CD31 antibodies (10 µg/ml), and Rap1 activation detected as in A. Fold activation of Rap1 compared to untreated cells was obtained by quantitating pixels from representative blots using Adobe Photoshop software. […]
# Rap1 = assay: GTP-bound GTPase pull-down with GST-RalGDS-RBD and immunoblotting in Jurkat cells; type: cell-based; settings: Jurkat JHMI 2.2 cells; TPA 100 ng/ml, 5 minutes
# Text: as §1
# Figure 1. […] Bound GTPases were resolved on SDS-PAGE, transferred to PVDF membrane, and detected by immunoblotting with antibodies against the indicated proteins, followed by enhanced chemiuminescence (ECL). […] Fold activation of Rap1 compared to untreated cells was obtained by quantitating pixels from representative blots using Adobe Photoshop software. […] CD31 WT, CD31 GPI, and Y663/686F Jurkat cell lines were stimulated for two minutes with medium (-) or 10 µg/ml PECAM 1.3 antibody and activated Rap1 detected as in A. Results shown in each panel are representative of three independent experiments.
# [1] = molecular target: catalytic domain of Epac1 (Homo sapiens, UniProt O95398)
# Sequence of catalytic domain of Epac1 (O95398 44-371): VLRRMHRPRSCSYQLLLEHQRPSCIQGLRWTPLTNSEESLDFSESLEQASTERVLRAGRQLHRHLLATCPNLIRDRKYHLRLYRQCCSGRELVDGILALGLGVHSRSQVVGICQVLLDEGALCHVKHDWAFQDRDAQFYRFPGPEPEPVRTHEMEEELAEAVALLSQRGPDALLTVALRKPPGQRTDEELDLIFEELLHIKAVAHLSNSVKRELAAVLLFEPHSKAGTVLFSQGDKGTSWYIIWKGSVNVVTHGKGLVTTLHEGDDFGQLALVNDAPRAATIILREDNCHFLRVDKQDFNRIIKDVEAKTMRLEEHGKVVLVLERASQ
# Procedure: Next we investigated whether a direct covalent linkage between the catalytic domain and the B-site is essential for this regulation, or whether they can function as separate domains. We therefore isolated the regulatory domains of both Epac1 and Epac2 and incubated them with the corresponding catalytic domains.
# For purification of Glutathione S-transferase (GST) -fusion constructs all cDNAs were cloned in pGEX bacterial expression vectors. […] The GST fusion construct of Repac contains amino acids 2-580. The catalytic domain CalDAG-GEFI contains amino acids 3-422. The catalytically active PDZ-GEF1 construct contains amino acids 251-1001. The GST-PKA fusion construct used contained the R1a-subunit of Bovine PKA, lacking amino acids 1-91. Protein production was induced in Bl-21 bacteria using 100 nM IPTG for 20 h at room temperature. After protein production, bacteria were pelleted and lyzed in ice-cold PBS containing 1% Triton-X100 and protease inhibitors. The lysate was sonicated three times for 10 seconds and centrifuged at 10,000 x g to remove insoluble material. […]
# Briefly, 100 nM of purified GTPase, loaded with fluorescently labeled 2',3'-bis (O) -N-methylantharanoloyl-guanosinediphosphate(mantGDP), was incubated, in the presence of excess unlabelled GDP, with 50 nM of purified GEF unless indicated differently. Release of mGDP was measured in realtime as a decrease in fluorescence. […]
# [2] = molecular target: catalytic domain of Epac2 (Mus musculus, UniProt Q9EQZ6)
# Sequence of catalytic domain of Epac2 (Q9EQZ6 478-1011): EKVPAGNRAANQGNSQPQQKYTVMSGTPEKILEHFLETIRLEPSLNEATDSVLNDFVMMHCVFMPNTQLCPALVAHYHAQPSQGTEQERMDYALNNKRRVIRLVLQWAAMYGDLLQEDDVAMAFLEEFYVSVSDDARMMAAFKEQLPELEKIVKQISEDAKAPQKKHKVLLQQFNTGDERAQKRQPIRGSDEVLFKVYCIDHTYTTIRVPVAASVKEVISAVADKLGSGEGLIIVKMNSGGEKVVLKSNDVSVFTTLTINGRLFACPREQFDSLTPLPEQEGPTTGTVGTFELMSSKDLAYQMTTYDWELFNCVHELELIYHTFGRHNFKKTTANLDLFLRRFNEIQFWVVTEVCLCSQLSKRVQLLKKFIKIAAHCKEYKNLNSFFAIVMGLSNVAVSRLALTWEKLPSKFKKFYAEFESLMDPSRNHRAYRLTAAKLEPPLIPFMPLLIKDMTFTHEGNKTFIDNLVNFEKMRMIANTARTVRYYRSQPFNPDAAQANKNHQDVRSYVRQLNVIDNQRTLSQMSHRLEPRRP
# Sequence of catalytic domain of Epac2 (Q9EQZ6 1-463 isoform Q9EQZ6-3 partner): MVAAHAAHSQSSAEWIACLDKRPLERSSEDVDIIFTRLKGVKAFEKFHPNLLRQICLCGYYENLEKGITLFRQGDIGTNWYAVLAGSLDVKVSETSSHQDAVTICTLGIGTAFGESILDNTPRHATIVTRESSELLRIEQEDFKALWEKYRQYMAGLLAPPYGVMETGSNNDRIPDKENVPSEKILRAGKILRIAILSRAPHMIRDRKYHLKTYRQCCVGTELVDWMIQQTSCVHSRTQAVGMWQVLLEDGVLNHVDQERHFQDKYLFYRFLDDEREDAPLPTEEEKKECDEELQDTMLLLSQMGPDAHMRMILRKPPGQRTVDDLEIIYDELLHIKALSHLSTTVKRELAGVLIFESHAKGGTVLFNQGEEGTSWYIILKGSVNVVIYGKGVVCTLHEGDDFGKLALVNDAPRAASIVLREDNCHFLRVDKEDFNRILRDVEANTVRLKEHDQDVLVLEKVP
# Procedure: We therefore isolated the regulatory domains of both Epac1 and Epac2 and incubated them with the corresponding catalytic domains.
# Protein production was induced in Bl-21 bacteria using 100 nM IPTG for 20 h at room temperature. After protein production, bacteria were pelleted and lyzed in ice-cold PBS containing 1% Triton-X100 and protease inhibitors. The lysate was sonicated three times for 10 seconds and centrifuged at 10,000 x g to remove insoluble material. GST-fusion proteins we purified from the cleared lysate by batch-wise incubation with glutathione-agarose beads (Sigma), eluted from the beads in buffer containing 50 mM Tris pH 7.5, 100 mM NaCl, 10% glycerol and 10mM glutathione and dialyzed for 20 hours in the same buffer without glutathione. When indicated, proteins were cleaved from the GST-tag by incubation with thrombin and purified by gelfiltration.
# Briefly, 100 nM of purified GTPase, loaded with fluorescently labeled 2',3'-bis (O) -N-methylantharanoloyl-guanosinediphosphate(mantGDP), was incubated, in the presence of excess unlabelled GDP, with 50 nM of purified GEF unless indicated differently. Release of mGDP was measured in realtime as a decrease in fluorescence. To calculate reaction rates, single exponential functions were fit using the program Grafit3.0 (Eritacus). […]
compound,measurement,setting,value
[Ca+2] [calcium],efficiency of full length CalDAG-GEF in activating Rap1,full length CalDAG-GEF 1,became as efficient as the mutant
"[Cl][Mn][Cl] [Mn^2+, MnCl2]",increase in mAB 24 expression,LFA-1,2.25-2.5 fold
CCCCCCCCCCCCCC(=O)O[C@@H]1[C@@H](C)[C@@]2(O)[C@@H](C=C(CO)C[C@]3(O)C(=O)C(C)=C[C@@H]23)[C@@H]2C(C)(C)[C@]12OC(C)=O [TPA],activation of Ras,Ras,activated
same,activation of Rap1,Rap1,activated
Nc1ncnc2c1ncn2[C@@H]1O[C@@H]2COP(=O)(O)O[C@H]2[C@H]1O [cAMP],effect on inhibition of the catalytic domain by the regulatory domain,[1],abolishes the inhibitory effect
same,effect on inhibition of the catalytic domain by the regulatory domain,[2],abolishes the inhibitory effect

# From patent publication EP1125946A1, “Cell adhesion therapy through modulation of a Rap family member or of a GEF (guanine nucleotide exchange factor)” (Universitair Medisch Centrum Utrecht, priority 2000, dated 2001)
